Source: PMC10916382, “Repurposing screen identifies novel candidates for broad-spectrum coronavirus antivirals and druggable host targets” (Antimicrobial Agents and Chemotherapy, 2024)
Where two headings read alike, the source gives them in different places.

What was measured:
in vitro [1] = conditions: human
HCoV-229E = test: microbe, parasite or virus in culture; assay type: cell-based, Homo sapiens sapiens; conditions: Human coronavirus 229E
in vitro [2] = test: in vitro
[3] = Calu-3 cells, immunofluorescence imaging
[4] = Huh-7.5/F-Luc cells, maximum tested dose 5 µM
[5] = Huh7.5, read-out: IC50 (µM), HCoV 229E
[6] = Anti-SARS-CoV-2 screening on Calu-3 cells: viability [% of control], Calu-3 cells

For `COc1cc(Nc2ncc(F)c(Nc3ccc4c(n3)N(COP(=O)(O)O)C(=O)C(C)(C)O4)n2)cc(OC)c1OC` [RFM-004-140-7], the “Anti-SARS-CoV-2 screening on Calu-3 cells: intracellular SARS-CoV-2 infection measured via immunofluorescence imaging [% of control]” value (from here on “Anti-SARS-CoV-2 screening … [% of control]”) (SARS-CoV-2; [3]) was 134.69 % of control, the viability at 5 µM (in vitro [1]) was 93.7% and the “CC50 (µM)” value (Huh-7.5/F-Luc cells; [4]) was “greater than maximum tested dose”. The IC50 (HCoV-229E; [5]) was 4.09 µM and the viability at 48 h, 5 µM (in vitro [2]) was 86.2%.
With `Cc1ccc([C@@H](CCNCC2CCCCC2)[C@@H]2CCOC(C)(C)C2)cc1F` [RFM-013-052-9] the “Anti-SARS-CoV-2 screening … [% of control]” value (SARS-CoV-2; [3]) was 121.52 % of control, the viability at 5 µM (in vitro [1]) was 119% and the “CC50 (µM)” value (Huh-7.5/F-Luc cells; [4]) was “greater than maximum tested dose”. The IC50 (HCoV-229E; [5]) was 1.8 µM and the viability (in vitro [2]; [6]) was 102%.
With `COCCN1CCC(N(Cc2ccc(-c3ccc(C(F)(F)F)cc3)cc2)C(=O)c2ccco2)CC1` [RFM-012-120-0] the “Anti-SARS-CoV-2 screening … [% of control]” value (SARS-CoV-2; [3]) was 87.75 % of control, the viability at 5 µM (in vitro [1]) was 130% and the “CC50 (µM)” value (Huh-7.5/F-Luc cells; [4]) was “greater than maximum tested dose”. For the same compound, the IC50 (HCoV-229E; [5]) was 1.61 µM and the viability (in vitro [2]; [6]) was 94.4%.
In the case of `CC(=O)N(C)C1(c2ccccc2)CCN(CCC[C@]2(c3ccc(Cl)c(Cl)c3)CCCN(C(=O)c3ccccc3)C2)CC1` [RFM-000-080-6], the “Anti-SARS-CoV-2 screening … [% of control]” value (SARS-CoV-2; [3]) is reported as 106.27 % of control, the viability at 5 µM (in vitro [1]) is reported as 131% and the “CC50 (µM)” value (Huh-7.5/F-Luc cells; [4]) is reported as “greater than maximum tested dose”. For the same compound, the IC50 (HCoV-229E; [5]) was 1.5 µM and the viability (in vitro [2]; [6]) was 113%.
For `CNc1cc(OC)c(C(=O)N[C@@H]2CCN(Cc3ccccc3)[C@@H]2C)cc1Cl` [RFM-000-360-1], the “Anti-SARS-CoV-2 screening … [% of control]” value (SARS-CoV-2; [3]) was 103.45 % of control, the viability at 5 µM (in vitro [1]) was 134% and the “CC50 (µM)” value (Huh-7.5/F-Luc cells; [4]) was “greater than maximum tested dose”. It also gave an IC50 (HCoV-229E; [5]) of 2.36 µM and a viability (in vitro [2]) of 109%.
For `CN(C)CCC=C1c2ccccc2C(C)(C)c2ccccc21` [RFM-000-885-5], the “Anti-SARS-CoV-2 screening … [% of control]” value (SARS-CoV-2; [3]) was 109.53 % of control, the viability at 5 µM (in vitro [1]) was 152% and the “CC50 (µM)” value (Huh-7.5/F-Luc cells; [4]) was “greater than maximum tested dose”. It also gave an IC50 (HCoV-229E; [5]) of 1.34 µM and a viability (in vitro [2]; [6]) of 93%.
For `Oc1ccc(Nc2ccnc3cc(Cl)ccc23)cc1CN1CCCC1` [RFM-010-841-8], the “Anti-SARS-CoV-2 screening … [% of control]” value (SARS-CoV-2; [3]) was 102.22 % of control, the viability at 5 µM (in vitro [1]) was 165% and the “CC50 (µM)” value (Huh-7.5/F-Luc cells; [4]) was “greater than maximum tested dose”. The IC50 (HCoV-229E; [5]) was 1.41 µM and the viability (in vitro [2]; [6]) was 109%.
In the case of `c1ccc2c(c1)Sc1ccccc1N2CC1CN2CCC1CC2` (stereo not drawn) [RFM-000-842-4], the “Anti-SARS-CoV-2 screening … [% of control]” value (SARS-CoV-2; [3]) is reported as 112.52 % of control, the viability at 5 µM (in vitro [1]) is reported as 166% and the “CC50 (µM)” value (Huh-7.5/F-Luc cells; [4]) is reported as “greater than maximum tested dose”. The IC50 (HCoV-229E; [5]) was 1.6 µM and the viability at 48 h, 5 µM (in vitro [2]) was 110%.
For `O=c1[nH]c2cc(Cl)ccc2n1C1CCN(CCCC(c2ccc(F)cc2)c2ccc(F)cc2)CC1` [RFM-008-181-2], the “Anti-SARS-CoV-2 screening … [% of control]” value (SARS-CoV-2; [3]) was 97.91 % of control, the viability at 5 µM (in vitro [1]) was 121% and the “CC50 (µM)” value (Huh-7.5/F-Luc cells; [4]) was “greater than maximum tested dose”. The IC50 (HCoV-229E; [5]) was 1.84 µM and the viability (in vitro [2]; [6]) was 107%.
With `CCOC(=O)/C=C/[C@H](C[C@@H]1CCNC1=O)NC(=O)[C@@H](CC(=O)[C@@H](NC(=O)c1cc(C)on1)C(C)C)Cc1ccc(F)cc1` [RFM-010-414-3] the “Anti-SARS-CoV-2 screening … [% of control]” value (SARS-CoV-2; [3]) was 93.65 % of control, the viability at 5 µM (in vitro [1]) was 94.6% and the “CC50 (µM)” value (Huh-7.5/F-Luc cells; [4]) was “greater than maximum tested dose”. For the same compound, the IC50 (HCoV-229E; [5]) was 4.19 µM and the viability (in vitro [2]; [6]) was 100%.
With `CC(C)NCC(O)COc1ccc(CC(=O)OCCC23CC4CC(CC(C4)C2)C3)cc1` (stereo not drawn) [RFM-010-929-5] the “Anti-SARS-CoV-2 screening … [% of control]” value (SARS-CoV-2; [3]) was 113.56 % of control, the viability at 5 µM (in vitro [1]) was 122% and the “CC50 (µM)” value (Huh-7.5/F-Luc cells; [4]) was “greater than maximum tested dose”. The IC50 (HCoV-229E; [5]) was 1.76 µM and the viability (in vitro [2]; [6]) was 90.2%.
With `CCCCCCOC(=O)NC(=N)c1ccc(NCc2nc3cc(C(=O)N(CCC(=O)OCC)c4ccccn4)ccc3n2C)cc1` [RFM-002-982-3] the “Anti-SARS-CoV-2 screening … [% of control]” value (SARS-CoV-2; [3]) was 100.41 % of control, the viability at 5 µM (in vitro [1]) was 126% and the “CC50 (µM)” value (Huh-7.5/F-Luc cells; [4]) was “greater than maximum tested dose”. It also gave an IC50 (HCoV-229E; [5]) of 3.13 µM and a viability (in vitro [2]; [6]) of 106%.
With `CC(Cc1ccccc1)NCCC(c1ccccc1)c1ccccc1` (stereo not drawn) [RFM-000-835-5] the “Anti-SARS-CoV-2 screening … [% of control]” value (SARS-CoV-2; [3]) was 102.68 % of control, the viability at 5 µM (in vitro [1]) was 140% and the “CC50 (µM)” value (Huh-7.5/F-Luc cells; [4]) was “greater than maximum tested dose”. For the same compound, the IC50 (HCoV-229E; [5]) was 1.53 µM and the viability at 48 h, 5 µM (in vitro [2]) was 102%.
With `CC(=O)[C@]1(O)Cc2c(O)c3c(c(O)c2[C@@H](O[C@H]2C[C@H](N)[C@H](O)[C@H](C)O2)C1)C(=O)c1ccccc1C3=O` [RFM-000-458-0] the “Anti-SARS-CoV-2 screening … [% of control]” value (SARS-CoV-2) was 139.58 % of control, the viability at 5 µM (in vitro [1]) was 103% and the “CC50 (µM)” value (Huh-7.5/F-Luc cells) was “greater than maximum tested dose”. The IC50 (HCoV-229E; [5]) was 1.55 µM and the viability at 48 h, 5 µM (in vitro [2]) was 15%.
With `CN(C)C(=O)NC1(c2ccccc2)CCN(CCC[C@]2(c3ccc(Cl)c(Cl)c3)CCCN(C(=O)c3ccccc3)C2)CC1` [RFM-003-485-5] the “Anti-SARS-CoV-2 screening … [% of control]” value (SARS-CoV-2; [3]) was 114.56 % of control, the viability at 5 µM (in vitro [1]) was 172% and the “CC50 (µM)” value (Huh-7.5/F-Luc cells; [4]) was “greater than maximum tested dose”. The IC50 (HCoV-229E; [5]) was 1.64 µM and the viability (in vitro [2]; [6]) was 109%.
With `CCCN(CCC)C(=O)C(Cc1ccc(OCCCN2CCN(C)CC2)cc1)NC(=O)c1ccc(Cl)cc1` (stereo not drawn) [RFM-009-534-1] the “Anti-SARS-CoV-2 screening … [% of control]” value (SARS-CoV-2; [3]) was 104.27 % of control, the viability at 5 µM (in vitro [1]) was 135% and the “CC50 (µM)” value (Huh-7.5/F-Luc cells; [4]) was “greater than maximum tested dose”. For the same compound, the IC50 (HCoV-229E; [5]) was 3.36 µM and the viability (in vitro [2]; [6]) was 103%.
With `CNCCC(Oc1cccc2ccccc12)c1cccs1` (stereo not drawn) [RFM-000-319-0] the “Anti-SARS-CoV-2 screening … [% of control]” value (SARS-CoV-2) was 109.17 % of control, the viability at 5 µM (in vitro [1]) was 143% and the “CC50 (µM)” value (Huh-7.5/F-Luc cells) was “greater than maximum tested dose”. The IC50 (HCoV-229E; Huh7.5, read-out: IC50 (µM), HCoV 229E, HCoV-229E/R-Luc on Huh-7.5/F-Luc cells, dose series, max. dose 5 µM) was 1.44 µM and the viability (in vitro [2]; Anti-SARS-CoV-2 screening on Calu-3 cells: viability [% of control]) was 104%.
With `CN1C[C@H](CNC(=O)OCc2ccccc2)C[C@@H]2c3cccc4c3c(cn4C)C[C@H]21` [RFM-005-941-6] the “Anti-SARS-CoV-2 screening … [% of control]” value (SARS-CoV-2; [3]) was 125.57 % of control, the viability at 5 µM (in vitro [1]) was 163% and the “CC50 (µM)” value (Huh-7.5/F-Luc cells; [4]) was “greater than maximum tested dose”. It also gave an IC50 (HCoV-229E; [5]) of 1.26 µM and a viability at 48 h, 5 µM (in vitro [2]) of 117%.
In the case of `CC(CN(C)C)CN1c2ccccc2CCc2ccccc21` (stereo not drawn) [RFM-008-630-6], the “Anti-SARS-CoV-2 screening … [% of control]” value (SARS-CoV-2; [3]) is reported as 106.86 % of control, the viability at 5 µM (in vitro [1]) is reported as 145% and the “CC50 (µM)” value (Huh-7.5/F-Luc cells; [4]) is reported as “greater than maximum tested dose”. For the same compound, the IC50 (HCoV-229E; [5]) was 1.47 µM and the viability at 48 h, 5 µM (in vitro [2]) was 114%.
In the case of `CCN1[C@@H]2CC[C@H]1C[C@@H](OC(c1ccccc1)c1ccccc1)C2` [RFM-011-925-5], the “Anti-SARS-CoV-2 screening … [% of control]” value (SARS-CoV-2; [3]) is reported as 108.20 % of control, the viability at 5 µM (in vitro [1]) is reported as 136% and the “CC50 (µM)” value (Huh-7.5/F-Luc cells; [4]) is reported as “greater than maximum tested dose”. The IC50 (HCoV-229E; [5]) was 1.62 µM and the viability (in vitro [2]; [6]) was 117%.
In the case of `OCCN1CCN(CCCN2c3ccccc3Sc3ccc(Cl)cc32)CC1` [RFM-000-391-8], the “Anti-SARS-CoV-2 screening … [% of control]” value (SARS-CoV-2; [3]) is reported as 116.90 % of control, the viability at 5 µM (in vitro [1]) is reported as 181% and the “CC50 (µM)” value (Huh-7.5/F-Luc cells; [4]) is reported as “greater than maximum tested dose”. The IC50 (HCoV-229E; [5]) was 1.84 µM and the viability at 48 h, 5 µM (in vitro [2]) was 110%.
